Source: publication PMC10004634 (PLOS ONE, 2023)
Where two headings read alike, the source gives them in different places.

Key:
Experiment in all cases: biochemical
Design in all cases: KINOMEscan scanMAX competition binding, DNA-tagged kinases, qPCR read-out, percent control at 300 nM
[1] = molecular target: T1, EPHA3 (Homo sapiens, UniProt P29320)
T1 sequence (P29320 1-983): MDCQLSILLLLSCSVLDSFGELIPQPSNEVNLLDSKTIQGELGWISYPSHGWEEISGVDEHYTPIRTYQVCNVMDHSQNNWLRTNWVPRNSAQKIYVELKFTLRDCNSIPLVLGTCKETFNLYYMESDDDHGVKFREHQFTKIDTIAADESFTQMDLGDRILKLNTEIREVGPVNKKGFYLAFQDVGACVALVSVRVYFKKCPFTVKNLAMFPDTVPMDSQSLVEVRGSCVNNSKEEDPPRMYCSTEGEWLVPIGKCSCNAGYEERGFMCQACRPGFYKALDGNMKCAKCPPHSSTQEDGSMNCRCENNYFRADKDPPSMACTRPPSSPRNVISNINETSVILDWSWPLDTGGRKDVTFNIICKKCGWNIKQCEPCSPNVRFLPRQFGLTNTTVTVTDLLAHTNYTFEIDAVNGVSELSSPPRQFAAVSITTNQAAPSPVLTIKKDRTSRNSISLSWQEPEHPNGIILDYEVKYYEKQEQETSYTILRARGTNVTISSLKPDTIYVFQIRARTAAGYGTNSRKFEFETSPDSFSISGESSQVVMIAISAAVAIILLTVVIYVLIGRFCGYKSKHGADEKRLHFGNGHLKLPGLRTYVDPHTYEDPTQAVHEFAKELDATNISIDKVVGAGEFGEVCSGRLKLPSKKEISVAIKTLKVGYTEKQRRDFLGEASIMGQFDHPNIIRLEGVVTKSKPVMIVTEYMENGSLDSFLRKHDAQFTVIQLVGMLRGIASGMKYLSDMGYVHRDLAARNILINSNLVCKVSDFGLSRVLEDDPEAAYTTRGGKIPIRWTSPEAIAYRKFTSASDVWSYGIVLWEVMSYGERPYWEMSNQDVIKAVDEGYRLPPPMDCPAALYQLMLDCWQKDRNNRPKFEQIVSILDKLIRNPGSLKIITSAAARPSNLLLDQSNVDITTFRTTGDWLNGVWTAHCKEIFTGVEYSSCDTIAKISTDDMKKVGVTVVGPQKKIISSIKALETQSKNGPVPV

[2] = molecular target: T2, EPHB2 (Homo sapiens, UniProt P29323)
T2 sequence (P29323 1-1055): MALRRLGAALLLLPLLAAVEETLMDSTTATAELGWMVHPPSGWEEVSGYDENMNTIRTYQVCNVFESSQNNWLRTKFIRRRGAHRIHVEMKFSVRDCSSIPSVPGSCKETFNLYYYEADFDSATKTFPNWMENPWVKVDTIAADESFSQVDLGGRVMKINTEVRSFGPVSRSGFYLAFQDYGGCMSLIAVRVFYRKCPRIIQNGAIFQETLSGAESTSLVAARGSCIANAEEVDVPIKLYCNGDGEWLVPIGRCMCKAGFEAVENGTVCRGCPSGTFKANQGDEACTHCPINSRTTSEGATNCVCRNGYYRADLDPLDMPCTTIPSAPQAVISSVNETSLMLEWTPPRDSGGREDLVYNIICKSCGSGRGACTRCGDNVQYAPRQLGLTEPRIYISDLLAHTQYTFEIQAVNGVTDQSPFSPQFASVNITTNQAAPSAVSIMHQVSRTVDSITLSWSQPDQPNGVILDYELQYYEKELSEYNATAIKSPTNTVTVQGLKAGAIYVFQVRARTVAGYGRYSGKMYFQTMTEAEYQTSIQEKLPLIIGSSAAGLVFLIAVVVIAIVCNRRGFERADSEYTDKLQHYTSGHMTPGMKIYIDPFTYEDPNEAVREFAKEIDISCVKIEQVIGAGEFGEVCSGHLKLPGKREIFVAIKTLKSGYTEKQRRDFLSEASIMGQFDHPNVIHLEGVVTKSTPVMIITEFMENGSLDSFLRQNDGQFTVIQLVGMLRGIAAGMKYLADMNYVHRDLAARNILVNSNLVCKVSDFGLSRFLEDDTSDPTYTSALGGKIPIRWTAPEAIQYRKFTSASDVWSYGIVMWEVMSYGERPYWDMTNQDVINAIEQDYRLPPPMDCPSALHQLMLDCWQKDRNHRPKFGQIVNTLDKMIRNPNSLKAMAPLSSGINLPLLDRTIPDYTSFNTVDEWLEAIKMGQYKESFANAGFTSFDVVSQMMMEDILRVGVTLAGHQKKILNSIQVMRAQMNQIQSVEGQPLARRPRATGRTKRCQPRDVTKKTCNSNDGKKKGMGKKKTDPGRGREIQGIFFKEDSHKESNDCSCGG

[3] = molecular target: T3, MARK4 (Homo sapiens, UniProt Q96L34)
T3 sequence (Q96L34 1-752): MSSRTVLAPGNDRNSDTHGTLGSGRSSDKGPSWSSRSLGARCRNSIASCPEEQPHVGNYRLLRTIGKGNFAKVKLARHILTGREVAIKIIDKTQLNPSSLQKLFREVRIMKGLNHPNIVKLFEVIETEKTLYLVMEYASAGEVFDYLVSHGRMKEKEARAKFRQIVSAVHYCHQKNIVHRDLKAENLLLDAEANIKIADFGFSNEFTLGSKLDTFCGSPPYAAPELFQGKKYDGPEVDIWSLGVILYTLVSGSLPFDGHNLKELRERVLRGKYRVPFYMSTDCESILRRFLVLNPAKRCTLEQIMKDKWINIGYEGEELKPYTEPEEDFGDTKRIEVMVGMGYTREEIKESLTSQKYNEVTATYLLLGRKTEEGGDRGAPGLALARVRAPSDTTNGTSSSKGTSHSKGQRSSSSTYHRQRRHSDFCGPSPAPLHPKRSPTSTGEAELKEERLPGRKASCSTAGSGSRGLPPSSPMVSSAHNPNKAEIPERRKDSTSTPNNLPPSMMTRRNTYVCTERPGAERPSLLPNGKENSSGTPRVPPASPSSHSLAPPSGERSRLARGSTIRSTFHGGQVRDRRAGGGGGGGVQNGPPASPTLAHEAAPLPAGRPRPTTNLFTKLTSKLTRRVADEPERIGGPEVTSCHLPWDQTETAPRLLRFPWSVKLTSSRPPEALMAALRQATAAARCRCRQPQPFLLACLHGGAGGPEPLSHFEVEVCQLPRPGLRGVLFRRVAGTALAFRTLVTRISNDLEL

[4] = molecular target: NEK4 (Homo sapiens, UniProt P51957)
Sequence of NEK4 (P51957 whole entry): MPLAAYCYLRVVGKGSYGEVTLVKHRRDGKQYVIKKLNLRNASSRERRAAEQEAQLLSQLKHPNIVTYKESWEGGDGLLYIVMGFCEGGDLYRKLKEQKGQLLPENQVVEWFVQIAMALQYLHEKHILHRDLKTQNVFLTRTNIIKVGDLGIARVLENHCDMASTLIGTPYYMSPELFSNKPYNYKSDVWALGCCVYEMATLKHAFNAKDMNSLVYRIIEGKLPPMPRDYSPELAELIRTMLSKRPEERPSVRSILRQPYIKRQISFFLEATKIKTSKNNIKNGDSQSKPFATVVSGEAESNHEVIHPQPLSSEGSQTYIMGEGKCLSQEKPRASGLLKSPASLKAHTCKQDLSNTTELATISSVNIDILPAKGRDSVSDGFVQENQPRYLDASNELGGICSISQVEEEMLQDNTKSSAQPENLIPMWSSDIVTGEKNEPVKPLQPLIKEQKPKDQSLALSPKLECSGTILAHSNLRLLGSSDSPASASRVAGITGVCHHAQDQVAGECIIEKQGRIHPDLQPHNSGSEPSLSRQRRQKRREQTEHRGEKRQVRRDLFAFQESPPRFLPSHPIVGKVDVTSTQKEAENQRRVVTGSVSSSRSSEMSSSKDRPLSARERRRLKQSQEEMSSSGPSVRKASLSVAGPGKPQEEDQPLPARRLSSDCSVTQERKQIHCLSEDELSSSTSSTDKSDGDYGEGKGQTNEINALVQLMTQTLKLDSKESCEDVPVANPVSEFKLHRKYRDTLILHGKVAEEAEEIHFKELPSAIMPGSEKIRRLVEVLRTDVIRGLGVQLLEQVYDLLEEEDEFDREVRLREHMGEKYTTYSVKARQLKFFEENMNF

[5] = read-out: Percent control / Tirabrutinib
[6] = read-out: Percent control / Zanubrutinib
[7] = read-out: Percent control / Acalabrutinib
[8] = read-out: Percent control / Ibrutinib

## CC#CC(=O)N1CC[C@@H](n2c(=O)n(-c3ccc(Oc4ccccc4)cc3)c3c(N)ncnc32)C1 [Tirabrutinib]
[1]; [5]
  remaining binding at 0.3 µM: 92%
[2]; [5]
  remaining binding at 0.3 µM: 87%
[3]; [5]
  remaining binding at 0.3 µM: 94%
[4]; [5]
  remaining binding at 0.3 µM: 99%

## C=CC(=O)N1CCC([C@@H]2CCNc3c(C(N)=O)c(-c4ccc(Oc5ccccc5)cc4)nn32)CC1 [Zanubrutinib]
[1]; [6]
  remaining binding at 0.3 µM: 75%
[2]; [6]
  remaining binding at 0.3 µM: 100%
[3]; [6]
  remaining binding at 0.3 µM: 83%
[4]; [6]
  remaining binding at 0.3 µM: 100%

## CC#CC(=O)N1CCC[C@H]1c1nc(-c2ccc(C(=O)Nc3ccccn3)cc2)c2c(N)nccn12 [Acalabrutinib]
[1]; [7]
  remaining binding at 0.3 µM: 74%
[2]; [7]
  remaining binding at 0.3 µM: 89%
[4]; [7]
  remaining binding at 0.3 µM: 88%

## C=CC(=O)N1CCC[C@@H](n2nc(-c3ccc(Oc4ccccc4)cc3)c3c(N)ncnc32)C1 [Ibrutinib]
[1]; [8]
  remaining binding at 0.3 µM: 82%
[3]; [8]
  remaining binding at 0.3 µM: 96%
